How the values were obtained:
[1] = system: cord blood (CB) mononuclear cells (MNC); experiment: R-BC154 (IXb) binding to cord blood mononuclear cell populations, flow cytometry; format: cell-based, human; settings: 1 mM Ca2+/Mg2+
Description: (§1) For in vitro labelling experiments, 5×10^6 BM cells from C57 mice, conditional α4^−/−/α9^−/− mice and humanised NODSCIDIL2Rγ^−/− mice and human cord blood MNCs were treated with R-BC154 (IXb) (up to 300 nM) in PBS (0.5% BSA) or TBS (0.5% BSA) containing either 1 mM CaCl2/MgCl2 (activating) or 10 mM EDTA (deactivating) at 40×10^6 cells/ml for 20 mins at 4° C. Cells were washed with cold PBS (2% FBS) and then immunolabelled as described in “Antibody Cocktails” prior to flow cytometric analysis. For in vivo experiments, C57BL/6 mice, α4^−/−/α9^−/− vav-cre mice and humanised NODSCIDIL2Rγ^−/− mice received either intravenous or subcutaneous injections of R-BC154 (IXb) (5-10 mg/kg) at 100 ul/10 gm mouse weight and analysed as described above.
(§2) For the assessment of α9β1 contribution to R-BC154 (IXb) binding, human and murine cells were stained with R-BC154 (100 nM) in the absence of competing antagonist or in the presence of excess amounts of the selective α4β1 antagonist BIO5192 (1 μM) or dual α4β1/α9β1 antagonist BOP (1 μM) in PBS containing 0.5% BSA and 1 mM CaCl2MgCl2 at 0° C. for 30 min. Cells were washed, immunolabelled as described above and analysed by flow cytometry. The contribution of α9β1 binding was calculated by measuring the difference in MFI between R-BC154 (IXb)+BIO5192 and +BOP and expressed as a % of R-BC154 (IXb) alone.

[2] = system: HSC and progenitors isolated from human BM; experiment: R-BC154 (IXb) binding to human BM cells; format: cell-based; settings: Ca2+/Mg2+
Description: as §2

[3] = system: human BM committed cells, progenitors and HSC of huNSG mice; experiment: R-BC154 (IXb) binding to humanized NSG (huNSG) BM; format: cell-based; settings: Ca2+/Mg2+
Description: as §1, §2

[4] = system: bone marrow progenitor cells (LSK) and HSC (LSKSLAM); experiment: In vivo bone marrow binding assay; settings: 10 mg kg−1 intravenously, versus un-injected mice
Description: R-BC154 (IXb) in PBS (10 mg kg-1) was injected intravenously into C57 mice. After 5 min, bone marrow cells were isolated as previously described in D. N. Haylock et at Stem Cells, 2007, 25, 1062-1069 and J. Grassinger, et al Cytokine, 2012, 58, 218-225. Briefly, one femur, tibia and iliac crest were excised and cleaned of muscle. After removing the epi- and metaphyseal regions, bones were flushed with PBS-2% FBS to obtain whole bone marrow, which were washed with PBS-2% FBS and then immunolabelled for flow cytometry. For analysis of R-BC154 (IXb) binding, the following antibody combinations were chosen to minimise emission spectra overlap. […]
To assess whether R-BC154 (IXb) and this class of N-phenylsulfonyl proline-based peptidomimetics could bind directly to HSC, R-BC154 (IXb) (10 mg kg^−1) was injected intravenously into mice and analysed for R-BC154 (IXb) labelling of phenotypically defined bone marrow progenitor cells (LSK cell; lineage-Sca-1+c-Kit+) and HSC (LSKSLAM cell; LSKCD48-CD150+) using multi-colour flow cytometry. […] Furthermore, in vivo R-BC154 (IXb) binding was also confirmed by fluorescence microscopy on purified populations of progenitor cells (Lineage-Sca-1+c-Kit+).

α9β1 integrin = α9β1 integrin (Homo sapiens, UniProt P05556+Q13797); experiment: In vitro (saturation) binding of R-BC154; set-up: expressed in transfected cells; host or cells: LN18 (ATCC CRL-2610), retrovirally transduced; endogenous α4 silenced with pSM2c-shITGA4; settings: in vitro binding data
Description: Cultured α4β1, α9β1 and control LN18 cells (0.5×10^6 cells) were treated with 100 μl of compound (R-BC154) at 0, 1, 3, 10, 30 and 100 nM in TBS-2% FBS (containing either no cations, 1 mM CaCl2—MgCl2 or 1 mM MnCl2). The cells were incubated at 37° C. for 60 min, washed once with TBS-2% FBS, dry pelleted and resuspended in the relevant binding buffer for flow cytometric analysis. Mean channel fluorescence was plotted against concentration and fitted to a one-site saturation ligand binding curve using GraphPad Prism 6. The dissociation constant, Kd was determined from the curves.

α9β1 integrin, sequence (Q13797 30-1035): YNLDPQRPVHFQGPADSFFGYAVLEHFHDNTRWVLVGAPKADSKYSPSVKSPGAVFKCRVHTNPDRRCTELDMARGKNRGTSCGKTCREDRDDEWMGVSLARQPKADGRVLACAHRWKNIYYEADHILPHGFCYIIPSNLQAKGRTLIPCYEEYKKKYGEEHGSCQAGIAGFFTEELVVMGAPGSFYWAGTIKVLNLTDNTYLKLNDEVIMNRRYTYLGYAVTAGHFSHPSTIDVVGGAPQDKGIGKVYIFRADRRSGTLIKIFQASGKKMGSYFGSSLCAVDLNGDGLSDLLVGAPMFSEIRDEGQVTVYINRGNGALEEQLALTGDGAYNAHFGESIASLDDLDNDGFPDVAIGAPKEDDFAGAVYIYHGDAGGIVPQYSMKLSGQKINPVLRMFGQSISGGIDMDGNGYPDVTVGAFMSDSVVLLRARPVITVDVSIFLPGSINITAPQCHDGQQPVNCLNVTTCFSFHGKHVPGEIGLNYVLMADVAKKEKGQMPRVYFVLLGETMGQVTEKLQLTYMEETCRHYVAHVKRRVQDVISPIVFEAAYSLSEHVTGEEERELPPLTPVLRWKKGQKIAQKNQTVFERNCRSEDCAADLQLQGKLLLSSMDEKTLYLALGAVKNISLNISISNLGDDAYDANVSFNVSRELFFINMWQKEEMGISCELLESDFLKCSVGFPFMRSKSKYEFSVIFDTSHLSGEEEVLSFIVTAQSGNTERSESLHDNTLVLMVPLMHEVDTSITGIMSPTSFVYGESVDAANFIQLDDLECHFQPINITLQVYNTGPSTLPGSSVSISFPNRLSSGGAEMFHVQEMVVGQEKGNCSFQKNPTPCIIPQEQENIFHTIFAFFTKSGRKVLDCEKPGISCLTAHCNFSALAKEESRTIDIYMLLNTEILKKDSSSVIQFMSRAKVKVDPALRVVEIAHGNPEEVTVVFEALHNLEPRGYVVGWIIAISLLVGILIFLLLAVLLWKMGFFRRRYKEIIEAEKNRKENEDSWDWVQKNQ
α9β1 integrin, sequence (P05556 21-798): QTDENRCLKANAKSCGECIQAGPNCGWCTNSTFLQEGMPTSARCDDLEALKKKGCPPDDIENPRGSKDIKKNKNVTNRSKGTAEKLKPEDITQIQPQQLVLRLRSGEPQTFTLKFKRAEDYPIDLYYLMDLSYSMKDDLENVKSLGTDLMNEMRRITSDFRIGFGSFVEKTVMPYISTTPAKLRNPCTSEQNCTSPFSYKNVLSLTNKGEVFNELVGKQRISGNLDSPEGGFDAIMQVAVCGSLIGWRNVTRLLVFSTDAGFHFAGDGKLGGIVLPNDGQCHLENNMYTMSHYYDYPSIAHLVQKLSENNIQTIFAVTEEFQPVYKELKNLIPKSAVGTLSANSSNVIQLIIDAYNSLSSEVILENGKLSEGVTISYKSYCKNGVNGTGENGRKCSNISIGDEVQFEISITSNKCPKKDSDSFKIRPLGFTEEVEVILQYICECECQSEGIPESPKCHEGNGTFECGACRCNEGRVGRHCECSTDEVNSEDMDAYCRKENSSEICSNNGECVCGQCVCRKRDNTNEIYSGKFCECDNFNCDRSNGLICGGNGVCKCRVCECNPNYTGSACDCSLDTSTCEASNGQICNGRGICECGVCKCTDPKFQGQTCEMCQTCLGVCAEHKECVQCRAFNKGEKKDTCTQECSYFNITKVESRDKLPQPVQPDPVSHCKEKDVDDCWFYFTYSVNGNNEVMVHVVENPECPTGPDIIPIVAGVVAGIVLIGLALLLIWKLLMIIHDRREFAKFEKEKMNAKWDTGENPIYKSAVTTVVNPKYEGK

Structure (SMILES): CCN(CC)c1ccc2c(-c3ccc(S(=O)(=O)NCc4cn(C5C[C@@H](C(=O)N[C@@H](Cc6ccc(OC(=O)N7CCCC7)cc6)C(=O)O)N(S(=O)(=O)c6ccccc6)C5)nn4)cc3S(=O)(=O)[O-])c3ccc(=[N+](CC)CC)cc-3oc2c1 (stereo partly drawn) [R-BC154 (IXb)]
- binding to CB HSC (CD34+CD38−) and progenitors (CD34+CD38+) [1]: high
- binding to CB lineage committed cells (CD34−CD38+) [1]: modest
- binding to HSC and progenitors isolated from human BM [2]: efficiently bound
- binding through α9β1 on huNSG BM committed cells, progenitors and HSC [3]: significant binding through α9β1 only occurred on HSC
- labelling of BM progenitor cells and HSC after injection [4]: Increased cell-associated fluorescence
- affinity for α9β1 integrin (α9β1 integrin): high affinity

From patent US20170340693A1, “DISLODGEMENT AND RELEASE OF HSC USING ALPHA 9 INTEGRIN ANTAGONIST AND CXCR4 ANTAGONIST” (COMMONWEALTH SCIENTIFIC AND INDUSTRIAL RESEARCH ORGANISATION, priority 2014, published 2017)
